# Measured values: patent publication US8557818B2, “Compounds useful as protein kinase inhibitors” (Vertex Phamaceuticals Incorporated, priority 2006, dated 2013)
# pKi: −log10 of the molar value.
# Target: PLK1 (Homo sapiens, UniProt P53350)
# Assay: PLK1 Inhibition Assay 1 (radioactive-phosphate incorporation assay)
# Type: biochemical
# Settings: Ki(app), [γ-33P]ATP 350 μM, peptide 450 μM, 1 nM PLK1 for values of <1 nM
# Protocol: Compounds of the present invention are evaluated as inhibitors of human PLK using the following assays.
# Compounds were screened for their ability to inhibit PLK1 using a radioactive-phosphate incorporation assay. Assays were carried out in a mixture of 25 mM HEPES (pH 7.5), 10 mM MgCl2, 0.1% BSA, and 2 mM DTT. Final substrate concentrations were 150 μM (350 μM for determining values of <1 nM) [γ-33P]ATP (115 mCi 33P ATP/mmol ATP, Amersham Pharmacia Biotech/Sigma Chemicals) and 300 μM (450 μM for determining values of <1 nM) peptide (KKKISDELMDATFADQEAK)[SEQ ID:1]. Assays were carried out at 25° C. in the presence of 4 nM (1 nM for determining values of <1 nM) PLK1. An assay stock buffer solution was prepared containing all of the reagents listed above, with the exception of ATP and the test compound of interest. 30 μL of the stock solution was placed in a 96 well plate followed by addition of 2 μL of DMSO stock containing serial dilutions of the test compound (typically starting from a final concentration of 10 μM with 2-fold serial dilutions) in duplicate (final DMSO concentration 5%). The plate was pre-incubated for 10 minutes at 25° C. and the reaction initiated by addition of 8 μL [γ-33P]ATP (final concentration 150 μM (350 μM for determining values of <1 nM))).
# The reaction was stopped after 90 minutes (240 minutes for determining values of <1 nM) by the addition of 100 μL 0.14M phosphoric acid. A multiscreen phosphocellulose filter 96-well plate (Millipore, Cat no. MAPHN0B50) was pretreated with 100 μL 0.2M phosphoric acid prior to the addition of 125 μL of the stopped assay mixture. The plate was washed with 4×200 μL 0.2M phosphoric acid. […]
# After removing mean background values for all of the data points, Ki(app) data were calculated from non-linear regression analysis of the initial rate data using the Prism software package (GraphPad Prism version 3.0cx for Macintosh, GraphPad Software, San Diego Calif., USA).
# Sequence of PLK1 (P53350 whole entry): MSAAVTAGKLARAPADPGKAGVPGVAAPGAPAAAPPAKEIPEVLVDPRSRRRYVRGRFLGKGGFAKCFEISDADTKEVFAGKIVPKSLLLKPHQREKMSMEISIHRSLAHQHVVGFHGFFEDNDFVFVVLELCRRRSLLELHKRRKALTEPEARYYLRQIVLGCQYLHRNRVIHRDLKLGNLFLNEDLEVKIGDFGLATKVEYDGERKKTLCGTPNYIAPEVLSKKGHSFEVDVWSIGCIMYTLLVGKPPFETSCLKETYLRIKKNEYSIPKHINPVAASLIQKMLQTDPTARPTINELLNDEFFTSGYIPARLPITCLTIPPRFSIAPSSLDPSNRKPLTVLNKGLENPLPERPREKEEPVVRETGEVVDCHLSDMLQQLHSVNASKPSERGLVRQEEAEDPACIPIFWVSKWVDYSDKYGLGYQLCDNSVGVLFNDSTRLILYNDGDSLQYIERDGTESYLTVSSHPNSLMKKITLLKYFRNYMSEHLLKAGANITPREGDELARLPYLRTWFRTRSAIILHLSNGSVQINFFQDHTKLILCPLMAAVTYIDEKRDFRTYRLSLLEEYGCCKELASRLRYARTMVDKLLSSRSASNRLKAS
row,pKi,Compound
1,> 9.00,"CC[C@@H]1c2cncn2-c2cnc(Nc3ccc(C(=O)NC)cc3OC)nc2N1C1CCCC1 [Compound I-4, (R)-4-(5-cyclopentyl-6-ethyl-5,6-dihydroimidazo[1,5-f]pteridin-3-ylamino)-3-methoxy-N-methylbenzamide]"
2,> 9.00,"CC[C@@H]1c2cncn2-c2cnc(Nc3ccc(C(=O)NC4CC4)cc3OC)nc2N1C1CCCC1 [Compound I-6, (R)-4-(5-cyclopentyl-6-ethyl-5,6-dihydroimidazo[1,5-f]pteridin-3-ylamino)-N-cyclopropyl-3-methoxybenzamide]"
3,> 9.00,"CC[C@@H]1c2c(C(=O)O)ncn2-c2cnc(Nc3ccc(C(=O)NC)cc3OC)nc2N1C1CCCC1 [Compound I-2, (R)-3-(4-(methylcarbamoyl)-2-methoxyphenylamino)-5-cyclopentyl-6-ethyl-5,6-dihydroimidazo[1,5-f]pteridine-7-carboxylic acid]"
